From US11154519B2, “Inhibitors and their uses” (MEDICAL RESEARCH COUNCIL, priority 2015, dated 2021)

How the values were obtained:
ATF4 = ATF4 immunoblot in cells; format: cell-based, human; details: 20 μM; 0, 2, 5, 7.5 h, FIG. 13
Description: (§1) For immunoblots, HeLa cells (80,000 cells/ml) were plated in 12-well plates 24 hours before each experiment. Immediately after the indicated treatments, cells were lysed in 75 μl Laemmli Buffer, boiled at 95° C. for 5 minutes and sonicated. Proteins were separated and analysed as described (Tsaytler et al., Science, 332, 91-94, 2011) with the following antibodies: phospho-elf2α [pS52] and PPP1R15A/GADD34 (10449-1-AP; ProteinTech Group, 1/1000 dilution) and ATF4 (Sc-200 Santa Cruz).
Translation can be inhibited at many levels. To ensure that the R15A and B inhibitors are on-target, we monitor the levels of ATF4 in cells treated with compounds. A R15A/B inhibitor persistently induce eIF2α phosphorylation and eIF2α phosphorylation results in ATF4 translation. We show here that an A/B inhibitor indeed induces ATF4, confirming target engagement in cells.

HD-N171-82Q mice = experiment: Huntington's disease mouse model, motor performance (rotarod); format: in vivo; details: 2 mg/kg oral daily, 4 weeks
Description: To assess the efficacy of a compound of Example 1 in ameliorating a disease phenotype, 28-day old transgenic mice or littermate control were orally administered daily with a compound of Example 1 (2 mg/kg) or vehicle for a duration of 4 weeks. Disease progression was evaluated by weighting the mice during the treatment and by assessing their motor performances after 4 weeks of treatment.
Eight weeks old HD-N171-82Q mice and their wild-type littermates were first habituated for 1 min on a static rotor and 1 min at constant speed (4 rpm). Habituation was repeated. The test session consisted of four trials with 15 min intervals in between. For each trial 5 mice were placed on an accelerating rotor (4 to 40 rpm) and the latency to fall was recorded, with a maximum limit for individual animal set at 300 s.
Increasing folding by inhibition of PPP1R15B has the potential to benefit a very broad range of human pathologies. To test this, the inventors looked at Huntington's disease (HD), a proteostasis disease caused by accumulation of a misfolded protein, mutant Huntingtin. […] As HD has no cure to date, the inventors tested whether HD could be prevented by PPP1R15B inhibition.

eIF2α phosphorylation = experiment: Assay 5: eIF2α phosphorylation during stress-recovery (DTT wash out); format: cell-based; details: 30 minute 1 mM DTT and wash out, before R15A is expressed
Description: HeLa cells were cultured in Dulbecco's Modified Eagle's Media (DMEM) supplemented with penicillin, streptomycin, containing 5% and 10% fetal bovine serum (FBS), respectively. MEF cells were cultured in DMEM supplemented with penicillin, streptomycin, glutamine, 55 μM β-mercaptoethanol, 1× non-essential amino acids (Sigma-Adrich) and 10% FBS. Where indicated, cells were treated with 2.5 μg/ml tunicamycin, 1 mM DTT (Sigma-Adrich) and or the indicated compounds at the indicated concentrations.
as §1
The inventors reasoned that a PPP1R15B inhibitor should prolong eIF2α phosphorylation following stress. […] The inventors took advantage of the fast kinetic and reversibility of stress induction by DTT (Bertolotti et al., Nat. Cell. Biol., 2, 326-332, 2000; Jousse et al., 2003) and monitored eIF2α phosphorylation in cells following a 30 minute treatment with 1 mM DTT and a wash out. […]

PPP1R15A = experiment: Assay 3: expression of PPP1R15A in cells; format: cell-based, human; details: late time points after addition, FIG. 2B
Description: as §1
Cells and organisms usually have mechanisms to compensate for deficiencies. The inventors therefore considered whether cells might compensate for PPP1R15B inhibition by inducing PPP1R15A. It has been previously reported that PPP1R15A levels are increased in the liver of PPP1R15B knock-out mice (Harding et al., Proc. Natl. Acad. Sci. U.S.A., 106, 1832-1837, 2009). It is unknown whether this compensatory response is specific to the liver or if it can happen in cells or other tissues. Furthermore, prior to this study, it was unknown whether PPP1R15A induction can be observed upon pharmacological inhibition of PPP1R15B, as they were no selective inhibitors of PPP1R15B prior to this study.

Compound | expression of ATF4 (immunoblot) (ATF4) | motor performances (HD-N171-82Q mice) | eIF2α phosphorylation following stress (eIF2α phosphorylation) | expression of PPP1R15A in cells (PPP1R15A)
[H]/N=C(\N)NN=Cc1cc(Cl)cc(Cl)c1Cl [Compound 10, (E)-2-(2,3,5-trichlorobenzylidene)hydrazine-1-carboximidamide] | induces expression of ATF4 |  |  | 
[H]/N=C(\N)NN=Cc1cccc(Cl)c1Cl [Compound 16, (E)-2-(2,3-dichlorobenzylidene)hydrazine-1-carboximidamide] |  | prevented the motor performances impairment | prolongs eIF2⊐ phosphorylation following stress | induce PPP1R15A
